Source: paper PMC9150099, “Preventing Influenza A Virus Infection by Mixed Inhibition of Neuraminidase and Hemagglutinin by Divalent Inhibitors” (Journal of Medicinal Chemistry, 2022)

What was measured:
[1] = target: Recombinant soluble N9 protein (N9 Spain) neuraminidase tetramer (Influenza A virus, UniProt K9MBB0); assay type: biochemical, Influenza A virus A/Anascrecca/Spain/1460/2008(H7N9)
[2] = test system: recombinant soluble tetrameric N1 and N9 proteins (neuraminidase); assay type: biochemical; conditions: for IC50: read-out: inhibition of recombinant NA tetramers in enzymatic MUNANA assay (IC50 μM)
[3] = target: NA of the whole Neth09H1N1 virus (Influenza A virus, UniProt C3PSV3); assay type: biochemical, Influenza virus A/Netherlands/602/2009 (Neth09H1N1); conditions: for IC50: read-out: inhibition of NA of the whole virus in enzymatic MUNANA assay (IC50 μM)
[4] = test system: Neth09H1N1 virus infection of MDCK cells; assay type: cell-based, Influenza virus A/Netherlands/602/2009 (Neth09H1N1)
[5] = test system: HA on virus particle (Neth09H1N1); assay type: binding, Influenza virus A/Netherlands/602/2009 (Neth09H1N1)
NA of Neth09H1N1 virus = assay type: biochemical, Influenza virus A/Netherlands/602/2009 (Neth09H1N1)
[6] = test system: HA on virus particle (Neth09H1N1); conditions: cited from earlier work

## C#CCCCC[C@H](CC)O[C@@H]1OC(C(=O)O)=C[C@H](O)[C@H]1NC(C)=O [Compound 12]
[1]
  reduction of potency relative to parent OCM: 6 fold
[2]
  potency difference to OC (OC more potent): ca. 600 fold
  IC50: 6.4 ± 1 µM
[3]
  potency difference to OC (OC more potent): ca. 600 fold
  IC50: 2.33 ± 0.005 µM
[4]
  CPE assay: >5 mM
  CPE reduction assay on MDCK cells, lowest concentration that inhibits CPE formation: >5 µM
[5]
  inhibition of virus-receptor binding (HA inhibition) by BLI: significant HA binding

## C#CCCCC[C@H](CC)O[C@H]1OC(C(=O)O)=C[C@H](O)[C@H]1NC(C)=O [Compound 14]
[1]
  IC50, NA (N9 Spain) MUNANA enzyme inhibition: no inhibition

## C#CCCCC[C@@H](CC)O[C@H]1OC(C(=O)O)=C[C@H](O)[C@H]1NC(C)=O [Compound 15]
[1]
  IC50, NA (N9 Spain) MUNANA enzyme inhibition: no inhibition

## CC[C@@H](CCCCc1cn([C@H]2[C@H](OC(C)=O)[C@@H](OC(C)=O)[C@H](n3cc(CCCC[C@H](CC)O[C@@H]4OC(C(=O)O)=C[C@H](O)[C@H]4NC(C)=O)nn3)O[C@@H]2COC(C)=O)nn1)O[C@@H]1OC(C(=O)O)=C[C@H](O)[C@H]1NC(C)=O [Compound 17a]
[2]
  IC50: 24.4 ± 17.5 µM
[3]
  IC50: 9.4 ± 0.4 µM
[4]
  CPE assay: >5 mM
  CPE reduction assay on MDCK cells, lowest concentration that inhibits CPE formation: >5 µM

## CC[C@@H](CCCCc1cn([C@H]2[C@H](O)[C@@H](O)[C@H](n3cc(-c4ccc(-c5cn([C@H]6[C@H](O)[C@@H](O)[C@H](n7cc(-c8ccc(-c9cn([C@@H]%10O[C@H](CO)[C@@H](n%11cc(CCCC[C@H](CC)O[C@@H]%12OC(C(=O)O)=C[C@H](O)[C@H]%12NC(C)=O)nn%11)[C@H](O)[C@H]%10O)nn9)cc8)nn7)O[C@@H]6CO)nn5)cc4)nn3)O[C@@H]2CO)nn1)O[C@@H]1OC(C(=O)O)=C[C@H](O)[C@H]1NC(C)=O [Compound 21]
[2]
  potency difference to OC (OC more potent): ca. 100 fold
  IC50: 1.3 ± 0.4 µM
[3]
  multivalency enhancement in comparison with monovalent 12: 20–30 fold
  potency difference to OC (OC more potent): ca. 25 fold
  IC50: 0.11 ± 0.004 µM
[4]
  CPE assay: 0.45 ± 0.4 mM
  CPE reduction assay on MDCK cells, lowest concentration that inhibits CPE formation: 0.45 ± 0.4 µM
  amount needed to prevent cell killing (CPE) relative to IC50 in MUNANA assay with the whole virus: 4 fold
  better CPE inhibitor than OC: ca. 2 fold
[5]
  inhibition of virus binding to the BLI sensor, compound alone: sufficient to prevent apparent viral binding to the sensor
  inhibition of virus-receptor binding (HA inhibition) by BLI: largest effect
  inhibition of virus-receptor binding by BLI in the presence of OC (Figure 5a): inhibited virus-receptor binding
NA of Neth09H1N1 virus
  NA inhibition judged from virus re-binding to regenerated sensor: able to inhibit the NA

## CC[C@@H](CCCCc1cn([C@H]2[C@H](O)[C@@H](O)[C@H](n3cc(-c4ccc(-c5cn([C@@H]6O[C@H](CO)[C@@H](n7cc(-c8cc(O)c(-c9cn([C@@H]%10O[C@H](CO)[C@@H](n%11cc(-c%12ccc(-c%13cn([C@@H]%14O[C@H](CO)[C@@H](n%15cc(CCCC[C@H](CC)O[C@@H]%16OC(C(=O)O)=C[C@H](O)[C@H]%16NC(C)=O)nn%15)[C@H](O)[C@H]%14O)nn%13)cc%12)nn%11)[C@H](O)[C@H]%10O)nn9)cc8O)nn7)[C@H](O)[C@H]6O)nn5)cc4)nn3)O[C@@H]2CO)nn1)O[C@@H]1OC(C(=O)O)=C[C@H](N)[C@H]1NC(C)=O [Compound 24]
[2]
  IC50: 10.6 ± 1.7 µM
[3]
  IC50: 4.7 ± 0.9 µM
[4]
  CPE assay: 0.84 ± 0.4 mM
  CPE reduction assay on MDCK cells, lowest concentration that inhibits CPE formation: 0.84 ± 0.4 µM
  amount needed to prevent cell killing (CPE) relative to IC50 in MUNANA assay with the whole virus: 0.2 fold
[5]
  inhibition of virus-receptor binding (HA inhibition) by BLI: did not have increased inhibitory activity compared to monovalent 12

## CCC(CC)O[C@@H]1C=C(C(=O)O)C[C@H](N)[C@H]1NC(C)=O [OC, oseltamivir carboxylate, reference compound]
[3]
  IC50: 0.004 ± 0.001 µM
[4]
  CPE assay: 1.0 ± 0.4 mM
  CPE reduction assay on MDCK cells, lowest concentration that inhibits CPE formation: 1.0 ± 0.4 µM
[6]
  interference with HA-receptor binding: does not interfere with HA-receptor binding

## CCC(CC)O[C@@H]1OC(C(=O)O)=C[C@H](O)[C@H]1NC(C)=O [OCM, reference compound]
[5]
  inhibition of virus-receptor binding (HA inhibition) by BLI: can be observed
